Test results reported in patent US12485123B2, “1H-pyrazolo[4,3-d]pyrimidine compounds as toll-like receptor 7 (TLR7) agonists” (BRISTOL-MYERS SQUIBB COMPANY, priority 2020, dated 2025).

Key:
human TLR7 = target: T1, human TLR7 (Homo sapiens, UniProt Q9NYK1); assay: Human TLR7 agonist activity reporter assay (HEK-Blue TLR7 cells, SEAP reporter); type: cell-based; details: human TLR7 (hTLR7) reporter assay, SEAP readout after 18 h, average where assay repeated, read-out: TLR7 Agonism EC50
T1 construct: host or cells: HEK-Blue TLR7 cells (engineered human embryonic kidney cells)
T1 sequence (Q9NYK1 27-1049): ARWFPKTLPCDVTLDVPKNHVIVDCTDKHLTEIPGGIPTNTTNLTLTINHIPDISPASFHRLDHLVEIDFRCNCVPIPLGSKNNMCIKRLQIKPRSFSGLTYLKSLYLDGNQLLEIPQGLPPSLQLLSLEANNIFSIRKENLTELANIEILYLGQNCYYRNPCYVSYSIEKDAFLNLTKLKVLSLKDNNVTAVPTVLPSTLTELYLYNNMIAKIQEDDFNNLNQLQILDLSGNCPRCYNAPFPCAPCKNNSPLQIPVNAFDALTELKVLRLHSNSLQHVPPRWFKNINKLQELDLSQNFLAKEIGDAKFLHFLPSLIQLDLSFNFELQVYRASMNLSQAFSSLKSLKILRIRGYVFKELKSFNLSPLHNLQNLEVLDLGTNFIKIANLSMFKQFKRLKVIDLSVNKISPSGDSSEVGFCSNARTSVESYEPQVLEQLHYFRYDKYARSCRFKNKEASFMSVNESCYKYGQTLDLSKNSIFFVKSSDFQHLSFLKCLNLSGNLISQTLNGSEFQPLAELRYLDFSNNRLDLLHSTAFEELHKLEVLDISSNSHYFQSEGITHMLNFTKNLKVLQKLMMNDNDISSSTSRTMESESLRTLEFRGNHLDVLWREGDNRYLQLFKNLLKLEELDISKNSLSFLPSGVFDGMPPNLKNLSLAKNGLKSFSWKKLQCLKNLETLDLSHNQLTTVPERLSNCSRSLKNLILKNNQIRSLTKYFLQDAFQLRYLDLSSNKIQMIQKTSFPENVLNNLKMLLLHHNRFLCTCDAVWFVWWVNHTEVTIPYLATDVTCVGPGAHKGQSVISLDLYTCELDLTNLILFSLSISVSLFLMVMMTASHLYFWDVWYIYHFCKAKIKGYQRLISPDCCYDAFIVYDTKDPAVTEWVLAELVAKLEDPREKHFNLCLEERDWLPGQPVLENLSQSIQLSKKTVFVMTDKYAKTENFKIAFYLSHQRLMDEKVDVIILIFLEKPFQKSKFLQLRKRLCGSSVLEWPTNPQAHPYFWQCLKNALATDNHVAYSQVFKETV
Description: Human TLR7 Agonist Activity Assay
This procedure describes a method for assaying human TLR7 (hTLR7) agonist activity of the compounds disclosed in this specification.
HEK-Blue™ TLR7 cells were added to each well of a 384-well tissue-culture plate (15,000 cells per well) and incubated 16-18 h at 37° C., 5% CO2. Compounds (100 nl) were dispensed into wells containing the HEK-Blue™ TLR cells and the treated cells were incubated at 37° C., 5% CO2. After 18 h treatment ten microliters of freshly-prepared Quanti-Blue™ reagent (Invivogen) was added to each well, incubated for 30 min (37° C., 5% CO2) and SEAP levels measured using an Envision plate reader (OD=620 nm).

CD69 = assay: Induction of CD69 in human whole blood; type: cell-based; details: 17 hrs incubation, CD69 surface staining, 100% set to 1 uM of resiquimod, average where assay repeated, read-out: hWB CD69 EC50
Description: Induction of Type I Interferon Genes (MX-1) and CD69 in Human Blood
The induction of Type I interferon (IFN) MX-1 genes and the B-cell activation marker CD69 are downstream events that occur upon activation of the TLR7 pathway. The following is a human whole blood assay that measures their induction in response to a TLR7 agonist.
Heparinized human whole blood was harvested from human subjects and treated with test TLR7 agonist compounds at 1 mM. The blood was diluted with RPMI 1640 media and Echo was used to predot 10 nL per well giving a final concentration of 1 uM (10 nL in 10 uL of blood). After mixing on a shaker for 30 sec, the plates were covered and placed in a 37° C. chamber for o/n=17 hrs. Fixing/lysis buffer was prepared (5×→1× in H2O, warm at 37° C.; Cat #BD 558049) and kept the perm buffer (on ice) for later use.
For surface markers staining (CD69): prepared surface Abs: 0.045 ul hCD14-FITC (ThermoFisher Cat #MHCD1401)+0.6 ul hCD19-ef450 (ThermoFisher Cat #48-0198-42)+1.5 ul hCD69-PE (cat #BD555531)+0.855 ul FACS buffer. Added 3 ul/well, spin 1000 rpm for 1 min and mixed on shaker for 30 sec, put on ice for 30 min. Stop stimulation after 30 minutes with 70 uL of prewarmed 1× fix/lysis buffer and use Feliex mate to resuspend (15 times, change tips for each plate) and incubate at 37 C for 10 minutes.
Centrifuge at 2000 rpm for 5 minutes aspirate with HCS plate washer, mix on shaker for 30 sec and then wash with 70 uL in dPBS and pelleted 2×s (2000 rpm for 5 min) and 50 ul wash in FACS buffer pelleted 1×s (2000 rpm for 5 min). Mix on shaker for 30 sec. For Intracellular markers staining (MX-1): Add 50 ul of BD Perm buffer III and mix on shaker for 30 sec. Incubate on ice for 30 minutes (in the dark). Wash with 50 uL of FACS buffer 2× (spin @2300 rpm×5 min after perm) followed by mixing on shaker for 30 sec. Resuspended in 20 ul of FACS buffer containing MX1 antibody ( )(4812)-Alexa 647: Novus Biologicals #NBP2-43704AF647) 20 ul FACS bf+0.8 ul hIgG+0.04 ul MX-1. Spin 1000 rpm for 1 min, mix on shaker for 30 se and the samples were incubated at RT in the dark for 45 minutes followed by washing 2×FACS buffer (spin @2300 rpm×5 min after perm). Resuspend 20 ul (35 uL total per well) of FACS buffer and cover with foil and place in 4° C. to read the following day. Plates were read on iQuePlus. The results were loaded into toolset and […] curves are generated in curve master. The y-axis 100% is set to 1 uM of resiquimod.

SMILES	EC50 (human TLR7) [nM]	EC50 (CD69) [nM]
CCCCNc1nc(N)nc2cnn(Cc3ccc(CNC4CCOCC4)c4cccnc34)c12 [Compound 109, N7-butyl-1-[(5-{[(oxan-4-yl)amino]methyl}quinolin-8-yl)methyl]-1H-pyrazolo[4,3-d]pyrimidine-5,7-diamine]	55.2	41.5
CCC[C@@H](CCO)Nc1nc(N)nc2cnn(Cc3ccc(C(=O)N4CCOCC4)c4cccnc34)c12 [Compound 113, (3S)-3-[(5-amino-1-{[5-(morpholine-4-carbonyl)quinolin-8-yl]methyl}-1H-pyrazolo[4,3-d]pyrimidin-7-yl)amino]hexan-1-ol]	186	132
CCC[C@@H](CCO)Nc1nc(N)nc2cnn(Cc3ccc(C(=O)NC4CCN(C)CC4)c4cccnc34)c12 [Compound 121, 8-[(5-amino-7-{[(3S)-1-hydroxyhexan-3-yl]amino}-1H-pyrazolo[4,3-d]pyrimidin-1-yl)methyl]-N-(1-methylpiperidin-4-yl)quinoline-5-carboxamide]	267	153
CCC[C@@H](CCO)Nc1nc(N)nc2cnn(Cc3ccc(CN4CC(O)C4)c4cccnc34)c12 [Compound 105, 1-({8-[(5-amino-7-{[(3S)-1-hydroxyhexan-3-yl]amino}-1H-pyrazolo[4,3-d]pyrimidin-1-yl)methyl]quinolin-5-yl}methyl)azetidin-3-ol]	49.4	13.8
CCC[C@@H](CCO)Nc1nc(N)nc2c(C)nn(Cc3ccc(C(=O)NC4CCN(C)CC4)c4cccnc34)c12 [Compound 123, 8-[(5-amino-7-{[(3S)-1-hydroxyhexan-3-yl]amino}-3-methyl-1H-pyrazolo[4,3-d]pyrimidin-1-yl)methyl]-N-(1-methylpiperidin-4-yl)quinoline-5-carboxamide]	732	661
CCC[C@@H](CCO)Nc1nc(N)nc2cnn(Cc3ccc(C(=O)NC4CCOCC4)c4cccnc34)c12 [Compound 114, 8-[(5-amino-7-{[(3S)-1-hydroxyhexan-3-yl]amino}-1H-pyrazolo[4,3-d]pyrimidin-1-yl)methyl]-N-(oxan-4-yl)quinoline-5-carboxamide]	75.2	369
CCC[C@@H](CCO)Nc1nc(N)nc2cnn(Cc3ccc(C(=O)N4CCN(C)CC4)c4cccnc34)c12 [Compound 112, (3S)-3-[(5-amino-1-{[5-(4-methylpiperazine-1-carbonyl)quinolin-8-yl]methyl}-1H-pyrazolo[4,3-d]pyrimidin-7-yl)amino]hexan-1-ol]	4.9	5.1

Continued, values first:

EC50 (human TLR7) [nM]	EC50 (CD69) [nM]	SMILES
440	248	CCC[C@@H](CCO)Nc1nc(N)nc2cnn(Cc3ccc(C(=O)N4CC5(CNC5)C4)c4cccnc34)c12 [Compound 124, (3S)-3-({5-amino-1-[(5-{2,6-diazaspiro[3.3]heptane-2-carbonyl}quinolin-8-yl)methyl]-1H-pyrazolo[4,3-d]pyrimidin-7-yl}amino)hexan-1-ol]
275	41.7	Cc1cc(CNc2nc(N)nc3cnn(Cc4ccc(C(=O)N5CC6(CN(C)C6)C5)c5cccnc45)c23)no1 [Compound 138, N7-[(5-methyl-1,2-oxazol-3-yl)methyl]-1-[(5-{6-methyl-2,6-diazaspiro[3.3]heptane-2-carbonyl}quinolin-8-yl)methyl]-1H-pyrazolo[4,3-d]pyrimidine-5,7-diamine]
191	49.7	CCC[C@@H](CCO)Nc1nc(N)nc2cnn(Cc3ccc(C(=O)N4C[C@H]5C[C@@H]4CN5C)c4cccnc34)c12 [Compound 126, (3S)-3-{[5-amino-1-({5-[(1R,4R)-5-methyl-2,5-diazabicyclo[2.2.1]heptane-2-carbonyl]quinolin-8-yl}methyl)-1H-pyrazolo[4,3-d]pyrimidin-7-yl]amino}hexan-1-ol]
